In test [1] the test system is HCV replicon I389luc-ubi-neo/NS3-3′/ET in ET (Huh-lucubineo-ET) cells. Kind of test: Replicon assay (Biological Example 2), luciferase readout. It is filed as cell-based. The note with it: Hepatitis C virus. Put shortly: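 EC50 values come from Hill fits of % inhibition of replicon-driven firefly luciferase, relative to no-compound wells. Compounds were serially diluted (10 points, 3-fold, 0.1 nM–50 μM final, 0.5% DMSO) onto ET replicon cells and read after 48 h.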

Test [2] deals with T1, HCV polymerase (Hepatitis C virus genotype 1b, UniProt Q9WMX2).
T1 construct: (His)6 (C); made in house; host or cells: XL-1 cells (E. coli, by own knowledge)
Kind of test: Polymerase assay of Biological Example 1 (IC50 values of Table 3). In kind it is biochemical. As to conditions: IC50 values of Table 3, polymerase assay of Biological Example 1; read-out: NS5B-enzyme3.

Where [3] appears, read: ET cells, luciferase activity 48 hours after compound.

Here are results for 24 compounds from patent US9498483B2, “2,3,5-trisubstituted thiophene compounds and uses thereof” (priority 2010, dated 2016).

For the compound `C[C@@H]1COCCN1c1ccc(S(=O)(=O)N2CC(=O)N(c3cc(-c4ccc(Cl)cc4)sc3C(=O)O)[C@H](C3CCCCC3)C2)cn1` [Compound 226, 5-(4-Chloro-phenyl)-3-{(R)-2-cyclohexyl-4-[6-((R)-3-methyl-morpholin-4-yl)-pyridine-3-sulfonyl]-6-oxo-piperazin-1-yl}-thiophene-2-carboxylic acid], the IC50 was no more than 0.1 µM in test [1] (setting [3]) and 0.009 µM in test [2].
Regarding `N[C@H]1CCCN(c2ccc(S(=O)(=O)N3CC(=O)N(c4cc(-c5ccccc5)sc4C(=O)O)[C@H](C4CCCCC4)C3)cn2)C1` [Compound 142, 3-[(R)-4-((S)-3-Amino-3,4,5,6-tetrahydro-2H-[1,2′]bipyridinyl-5′-sulfonyl)-2-cyclohexyl-6-oxo-piperazin-1-yl]-5-phenyl-thiophene-2-carboxylic acid], the IC50 was 0.1 to 5 µM in test [1] (between 100 nM and 5.0 uM); 0.002 µM in test [2].
Turning to `C[C@@H]1CN(c2ccc(S(=O)(=O)N3CC(=O)N(c4cc(-c5ccccc5)sc4C(=O)O)[C@H](C4CCCCC4)C3)cn2)CCN1C(=O)OC(C)(C)C` [Compound 151, (R)-4-{5-[(R)-4-(2-Carboxy-5-phenyl-thiophen-3-yl)-3-cyclohexyl-5-oxo-piperazine-1-sulfonyl]-pyridin-2-yl}-2-methyl-piperazine-1-carboxylic acid tert-butyl ester], the figures for the IC50 in test [1] (setting [3]) and in test [2] were no more than 0.1 µM and 0.003 µM, respectively.
Take `CC(=O)Nc1ccc(S(=O)(=O)N2CC(=O)N(c3cc(-c4ccccc4)sc3C(=O)O)C(C3CCCCC3)C2)cc1` (stereo not drawn) [Compound 50, 3-[4-(4-Acetylamino-benzenesulfonyl)-2-cyclohexyl-6-oxo-piperazin-1-yl]-5-phenyl-thiophene-2-carboxylic acid]: the IC50 in test [1] (between 100 nM and 5.0 uM) was 0.1 to 5 µM; in test [2], 0.007 µM.
Turning to `O=C(O)c1sc(-c2ccc(F)cc2)cc1N1C(=O)CN(S(=O)(=O)c2ccc(N3CCC(F)(F)C3)nc2)C[C@H]1C1CCCCC1` [Compound 286, 3-{(R)-2-Cyclohexyl-4-[6-(3,3-difluoro-pyrrolidin-1-yl)-pyridine-3-sulfonyl]-6-oxo-piperazin-1-yl}-5-(4-fluoro-phenyl)-thiophene-2-carboxylic acid], the IC50 in test [1] (setting [3]) is no more than 0.1 µM; in test [2], 0.001 µM.
`O=C(O)c1sc(-c2ccccc2)cc1N1C(=O)CN(S(=O)(=O)c2ccc(OC(F)F)cc2)CC1C1CCCCC1` (stereo not drawn) [Compound 106, 3-[2-Cyclohexyl-4-(4-difluoromethoxy-benzenesulfonyl)-6-oxo-piperazin-1-yl]-5-phenyl-thiophene-2-carboxylic acid]: the IC50 is 0.1 to 5 µM in test [1] (between 100 nM and 5.0 uM); 0.014 µM in test [2].
The corresponding values for `O=C(O)c1sc(-c2ccccc2)cc1N1C(=O)CC(O)CC1C1CCCCC1` (stereo not drawn) [Compound 12] are 0.1 to 5 µM and 0.045 µM.
`O=C(O)c1sc(-c2ccccc2)cc1N1C(=O)CN(S(=O)(=O)c2ccc(NC3CCCC3)nc2)CC1C1CCCCC1` (stereo not drawn) [Compound 82, 3-[2-Cyclohexyl-4-(6-cyclopentylamino-pyridine-3-sulfonyl)-6-oxo-piperazin-1-yl]-5-phenyl-thiophene-2-carboxylic acid]: the IC50 in test [1] (setting [3]) was no more than 0.1 µM; in test [2], 0.006 µM.
For the compound `CC(C)(C)C#Cc1cc(N2C(=O)C(N)CC[C@H]2C2CCCCC2)c(C(=O)O)s1` (stereo partly drawn) [Compound 340, 3-((S)-3-Amino-6-cyclohexyl-2-oxo-piperidin-1-yl)-5-(3,3-dimethyl-but-1-ynyl)-thiophene-2-carboxylic acid], the IC50 in test [1] (setting [3]) is no more than 0.1 µM; in test [2], 0.008 µM.
In the same order, the values of `CN(C)[C@H]1CCN(c2ccc(S(=O)(=O)N3CC(=O)N(c4cc(-c5ccccc5)sc4C(=O)O)[C@H](C4CCCCC4)C3)cn2)C1` [Compound 156, 3-{(R)-2-Cyclohexyl-4-[6-((S)-3-dimethylamino-pyrrolidin-1-yl)-pyridine-3-sulfonyl]-6-oxo-piperazin-1-yl}-5-phenyl-thiophene-2-carboxylic acid] are no more than 0.1 µM and 0.001 µM.
For the compound `CC(C)(C)C#Cc1cc(N2C(=O)[C@](C)(CC(O)CO)OC[C@H]2C2CCCCC2)c(C(=O)O)s1` (stereo partly drawn) [Compound 327, 3-[(2S,5R)-5-Cyclohexyl-2-(2,3-dihydroxy-propyl)-2-methyl-3-oxo-morpholin-4-yl]-5-(3,3-dimethyl-but-1-ynyl)-thiophene-2-carboxylic acid], the IC50 is no more than 0.1 µM in test [1] (setting [3]) and 0.004 µM in test [2].
The corresponding values for `CC(C)(C)C#Cc1cc(N2C(=O)[C@H](CCO)OC[C@H]2C2CCCCC2)c(C(=O)O)s1` [Compound 332, 3-[(2S,5R)-5-Cyclohexyl-2-(2-hydroxy-ethyl)-3-oxo-morpholin-4-yl]-5-(3,3-dimethyl-but-1-ynyl)-thiophene-2-carboxylic acid] are no more than 0.1 µM and 0.012 µM.
The corresponding values for `O=C(O)c1sc(-c2ccc(F)cc2)cc1N1C(=O)CN(S(=O)(=O)c2ccc(N3CC[C@@H](F)C3)nc2)C[C@H]1C1CCCCC1` [Compound 280, 3-{(R)-2-Cyclohexyl-4-[6-((R)-3-fluoro-pyrrolidin-1-yl)-pyridine-3-sulfonyl]-6-oxo-piperazin-1-yl}-5-(4-fluoro-phenyl)-thiophene-2-carboxylic acid] are no more than 0.1 µM and 0.001 µM.
The corresponding values for `CC(C)(C)C#Cc1cc(N2C(=O)[C@@H](CCCO)OC[C@H]2C2CCCCC2)c(C(=O)O)s1` (single isomer, unassigned) [Compound 3] are no more than 0.1 µM and 0.004 µM.
`C[C@H]1CN(c2ccc(S(=O)(=O)N3CC(=O)N(c4cc(-c5ccccc5)sc4C(=O)O)[C@H](C4CCCCC4)C3)cn2)CCN1` [Compound 145, 3-{(R)-2-Cyclohexyl-4-[6-((S)-3-methyl-piperazin-1-yl)-pyridine-3-sulfonyl]-6-oxo-piperazin-1-yl}-5-phenyl-thiophene-2-carboxylic acid]: the IC50 in test [1] (setting [3]) is no more than 0.1 µM; in test [2] it was 0.001 µM.
In the case of `O=C(O)c1sc(-c2ccccc2)cc1N1C(=O)CN(S(=O)(=O)c2ccc(N3CC4CCC(C3)O4)nc2)C[C@H]1C1CCCCC1` [Compound 216, 3-{(R)-2-Cyclohexyl-4-[6-(8-oxa-3-aza-bicyclo[3.2.1]oct-3-yl)-pyridine-3-sulfonyl]-6-oxo-piperazin-1-yl}-5-phenyl-thiophene-2-carboxylic acid], the IC50 in test [1] (setting [3]) is no more than 0.1 µM; in test [2] it was 0.001 µM.
Consider `O=C(O)c1sc(-c2ccccc2)cc1N1C(=O)CN(S(=O)(=O)c2ccc(-c3ccc(F)cc3F)nc2)C[C@H]1C1CCCCC1` [Compound 205, 3-{(R)-2-Cyclohexyl-4-[6-(2,4-difluoro-phenyl)-pyridine-3-sulfonyl]-6-oxo-piperazin-1-yl}-5-phenyl-thiophene-2-carboxylic acid], for which the IC50 in test [1] (between 100 nM and 5.0 uM) was 0.1 to 5 µM; in test [2], 0.004 µM.
In the same order, the values of `CCc1ccc(S(=O)(=O)N2CC(=O)N(c3cc(-c4ccccc4)sc3C(=O)O)C(C3CCCCC3)C2)cc1` (single isomer, unassigned) [Compound 55, 3-[2-Cyclohexyl-4-(4-ethyl-benzenesulfonyl)-6-oxo-piperazin-1-yl]-5-phenyl-thiophene-2-carboxylic acid] are 0.1 to 5 µM and 0.071 µM.
Take `O=C(O)c1sc(-c2ccccc2)cc1N1C(=O)CN(S(=O)(=O)c2ccc(-c3ccn[nH]3)nc2)C[C@H]1C1CCCCC1` [Compound 209, 3-{(R)-2-Cyclohexyl-6-oxo-4-[6-(2H-pyrazol-3-yl)-pyridine-3-sulfonyl]-piperazin-1-yl}-5-phenyl-thiophene-2-carboxylic acid]: the IC50 is 0.1 to 5 µM in test [1] (between 100 nM and 5.0 uM); 0.001 µM in test [2].
In the same order, the values of `O=C(O)c1sc(-c2ccccc2)cc1N1C(=O)CN(S(=O)(=O)c2ccc(Oc3ccccc3)cc2)CC1C1CCCCC1` (stereo not drawn) [Compound 51, 3-[2-Cyclohexyl-6-oxo-4-(4-phenoxy-benzenesulfonyl)-piperazin-1-yl]-5-phenyl-thiophene-2-carboxylic acid] are 0.1 to 5 µM and 0.011 µM.
The corresponding values for `N[C@H]1CCN(c2ccc(S(=O)(=O)N3CC(=O)N(c4cc(-c5ccccc5)sc4C(=O)O)[C@H](C4CCCCC4)C3)cn2)C1` [Compound 144, 3-{(R)-4-[6-((S)-3-Amino-pyrrolidin-1-yl)-pyridine-3-sulfonyl]-2-cyclohexyl-6-oxo-piperazin-1-yl}-5-phenyl-thiophene-2-carboxylic acid] are 0.1 to 5 µM and 0.002 µM.
`Cc1ccc(CN2CC(=O)N(c3cc(C#CC(C)(C)C)sc3C(=O)O)C(C3CCCCC3)C2)cc1` (stereo not drawn) [Compound 174, 3-[2-Cyclohexyl-4-(4-methyl-benzyl)-6-oxo-piperazin-1-yl]-5-(3,3-dimethyl-but-1-ynyl)-thiophene-2-carboxylic acid]: the IC50 is no less than 5 µM in test [1] (setting [3]) and 5.11 µM in test [2].
In the same order, the values of `CN1CCOc2cc(S(=O)(=O)N3CC(=O)N(c4cc(-c5ccccc5)sc4C(=O)O)C(C4CCCCC4)C3)cnc21` (stereo not drawn) [Compound 99, 3-[2-Cyclohexyl-4-(4-methyl-3,4-dihydro-2H-pyrido[3,2-b][1,4]oxazine-7-sulfonyl)-6-oxo-piperazin-1-yl]-5-phenyl-thiophene-2-carboxylic acid] are no more than 0.1 µM and 0.002 µM.
Consider `O=C(O)c1sc(-c2ccccc2)cc1N1C(=O)CN(S(=O)(=O)c2cccnc2)CC1C1CCCCC1` (stereo not drawn) [Compound 108, 3-[2-Cyclohexyl-6-oxo-4-(pyridine-3-sulfonyl)-piperazin-1-yl]-5-phenyl-thiophene-2-carboxylic acid], for which the IC50 in test [1] (between 100 nM and 5.0 uM) was 0.1 to 5 µM; in test [2] it was 0.037 µM.
